Measured values published in patent US20030118636A1, “Delivery of small hydrophilic molecules packaged into lipid vesicles” (priority 2001, published 2003).
Read-outs that look alike come from different tables or passages of the source.

Columns and labels:
[1] = target: T1, MscL mutant G22C (Escherichia coli, UniProt P0A742, G22C); format: biochemical, E. coli; details: for kinetics of calcein release compared to MTSET: 2.5 mM MTSEA, 10 mM MTSES
T1 construct: expressed in transfected cells
Protocol: Samples were prepared, and calcein efflux was monitored as described in examples 1 and 2A.
The membrane reconstitution mixture was incubated for 30 min. at room temperature and 40 mg of detergent-absorbing Bio-Beads SM-2 (Bio-Rad, Inc.) was added and incubated at 4° C. for 30 min. Next, 400 mg Bio-Beads were added and incubated overnight at 4° C. All steps were performed under mild agitation. Samples were prepared for calcein efflux assay as described in example 1.

[2] = target: T1, MscL mutant G22C; details: no tension applied (Yoshimura et al.); cited from earlier work
[3] = target: T2, MscL (Escherichia coli, UniProt P0A742, G22C); format: biochemical, E. coli
T2 construct: made in house; host or cells: E. coli PB104
T2 sequence (P0A742 2-136 G22C): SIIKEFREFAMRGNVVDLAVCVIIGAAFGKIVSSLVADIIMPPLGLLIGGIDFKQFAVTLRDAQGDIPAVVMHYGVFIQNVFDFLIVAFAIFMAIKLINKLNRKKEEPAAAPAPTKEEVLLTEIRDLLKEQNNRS

[4] = target: T1, MscL mutant G22C; format: biochemical, E. coli
Protocol: FIGS. 10A-10D. […] Pressure in the pipette, relative to atmospheric, is shown in the lower traces of FIGS. 10A and 10B, and recordings of the current through a cell attached patch of a spheroplast are shown in the upper traces of FIGS. 10A and 10B. […] Buffer: 200 mM KCl, 90 mM MgCl2, 110 mM CaCl2, 5 mM HEPES, pH 6.0. FIGS. 10C and 10D show the histograms of the conductivity preferences of FIGS. 10A and 10B, respectively.
FIGS. 14A-14D. […] 5 μl of G22C spheroplasts were incubated with IMI (2 mM final concentration) or with patch buffer overnight at 4° C. The next day, currents through cell-attached patches held at +20 mV were recorded for unlabeled (FIG. 14A) and labeled (FIG. 14B) proteins and histograms showing the conductance states of each recording are illustrated in FIG. 14C and FIG. 14D, respectively.
Expression, purification, membrane reconstitution, and patch clamp analysis were performed as described in Example 1 or as described below.
Giant spheroplasts were prepared as explained before (Blount, P. et al., Methods Enzymol. Vol. 294:458-482, 1999).

[5] = Urinary excretion of IOT after subcutaneous injection in conscious rats; format: in vivo, rat; details: free IOT
Protocol: DOPC/DOPS (90:10, mol/mol) and DOPC/DOPE liposomes (70:30, mol/mol) were tested.
Male Wistar rats remained conscious throughout the study. To increase the resolution time, the diuretic furosemide (10 mg/kg dose s.c.) was given in the morning, 7 hours before administration of the sample. Urine was collected automatically with a 1 hour resolution. The concentration of IOT in the urine was measured by HPLC.

[6] = rat; cited from earlier work
[7] = target: T1, MscL mutant G22C; assay: FITC-insulin efflux from liposomes with MscL mutant G22C (filter assay); format: biochemical, E. coli; details: 1 mM MTSET; DOPC:DOPS 9:1 liposomes with MscL mutant G22C
Protocol: Insulin and fluorescein isothiocyanate (FITC) were obtained from Sigma (St. Louis, Mo., USA). Insulin (23 mg) was reacted with a four-fold molar ratio of FITC in 0.1 N borate buffer, pH 9.0, for 60 min. The pH was lowered to 7.5 with 0.1 N boric acid and the solution was extensively dialyzed, using a dialysis membrane with a molecular weight cut-off of 2,000 Da, for 96 hours against water at 4° C. with frequent water changes. Absorption spectra of the dialyzed sample were used to quantify the protein concentration and the stoichiometry of labeling. Concentrations of FITC and insulin were both 0.1 mM. The labeled insulin was encapsulated by three freeze-thaw cycles, followed by extrusion through a 400 nm polycarbonate membrane. The proteoliposomes containing labeled insulin were separated from free labeled insulin by using sephadex G-50 column chromatography equilibrated with 145 mM NaCl, 300 mM Sucrose, 25 mM Tris.HCl and 1 mM EDTA, pH 8.0.
Samples were taken at different time points and Triton was added as a control for maximum fluorescence (100%). Samples were filtered over a 450 nm Cellulose Nitrate filter (Schleicher & Schuell BA85). The filtrate of 2 ml was retained and the fluorescence of 200 I11 of each filtrate was monitored in an fl600 plate reader (Bio-Tek). All experiments were performed in triplicate.

[8] = free compound
Protocol: The effect of drug formulation on the rate of drug release in vivo was tested in the rat by external counting of radioactivity. The model was based on liposomal formulations that remain at the subcutaneous site of administration with an encapsulated model drug which, when released, was rapidly removed from the subcutaneous site of injection and excreted into the urinary bladder.
Male Wistar rats were anaesthetized using iso-flurane O2/NO throughout the study. Liposome encapsulated MAG3 in a 0.5 ml volume was injected subcutaneously (in the neck) and accumulation of radioactivity in the urinary bladder was constantly monitored by external counting using a gamma-camera (window: 140 keV, 250 keV width, 1 min. time resolution). At the end of the study (after 40 min.), a 10 times higher dose of free MAG3 was administered subcutaneously or intravenously to measure the urinary excretion rates of those formulations.

[9] = humans; cited from earlier work
[10] = DOPC:DOPS 90:10 liposomes with MscL mutant G22C
[11] = 1 mM MTSET, DOPC:DOPS 90:10 liposomes with MscL mutant G22C

T1 sequence (P0A742 2-136 G22C): as above

Compound: 2-aminoethyl methanethiosulfonate [MTSEA]
- kinetics of calcein release compared to MTSET [1, 10]: significantly slower
- effect of attachment to the cysteine on gating under patch clamp [2]: gate spontaneously

Compound: Br.BrCc1ccncc1 [BP, 4-(bromomethyl)pyridine hydrobromide]
- channel behavior of labeled MscL mutant G22C ([3]; pH 5.2, +20 mV): prefers not to open completely but only to subconducting states and the dwell times get shorter
- channel behavior of labeled MscL mutant G22C ([3]; pH 7.2, +20 mV): behaves as an unlabeled channel

Compound: COC(=O)C(I)Cc1cnc[nH]1 (stereo not shown) [IMI, methyl 2-iodo-3-(5-imidazolyl)propanoate]
- channel state in calcein efflux assays ([1]; IMI labeled MscL mutant G22C, pH 7.0 and 8.0 (data not shown)): tendency to stay open at pH 7.0 and 8.0
- ratio of tension sensitivity of MscL over MscS ([4]; spheroplasts, pH 6): 1.48

Compound: CNC(=O)c1c(I)c(NC(C)=O)c(I)c(C(=O)O)c1I [IOT, Iodo-thalamate]
- first phase urinary excretion [5]: completed in the first couple of hours
- excretion via glomerular filtration [6]: 1 ml.min^−1.100 g rat

Compound: C[N+](C)(C)CCSS(C)(=O)=O [MTSET, [2-(Trimethylammonium)ethyl]methanethiosulfonate]
- encapsulated calcein released [1, 11]: 80%
- time for half of the MscL mediated efflux [1, 11]: ≤ 7 s
- calcein release upon addition ([1]; DOPC:Cholesterol 80:20 liposomes with vs without MscL mutant G22C): effective release of calcein
- effect of attachment on pressure sensitivity and gating ([4]; attached to MscL mutant G22C in spheroplasts): spontaneous gating of the channel
- FITC-insulin efflux upon activation [7]: release of FITC-insulin
- effect of attachment to the cysteine on gating under patch clamp [2]: gate spontaneously

Compound: mertiatide [MAG3]
- time to 50% urinary excretion ([8]; intravenous): 3 min
- time to 50% urinary excretion ([8]; subcutaneous): > 12 min
- active tubular secretion [9]: 600 mL/min

Compound: sodium (2-sulfonatoethyl) methane thiosulfonate [MTSES]
- kinetics of calcein release compared to MTSET [1, 10]: significantly slower
- effect of attachment to the cysteine on gating under patch clamp [2]: gate spontaneously
